Assay results from patent publication US20090104119A1, “Dendrimer Based Compositions And Methods Of Using The Same” (priority 2004, published 2009).

Assays:
[1] = tested on: KB cells; test: Inhibition of cell growth by total cell protein
Method: Cell culture and treatment. KB cells were maintained in folate-free medium containing 10% serum (See, e.g., Quintana et al, Pharm. Res. 19, 1310 (2002)) to provide extracellular FA similar to that found in human serum. Cells were plated in 12-well plates for uptake studies, in 24-well plates for cell growth analysis, and in 96-well plates for XTT assay. Cells were rinsed with FA-free medium containing dialyzed serum and incubated at 37° C. with dendrimer-drug conjugates for the indicated time periods and concentrations. KB cells were also maintained in RPMI medium containing 2 μM FA to obtain cells which express low FAR.
Evaluation of dendrimer cytotoxicity. Cell growth was determined by assay of the total protein in lysates of treated cells using a bicinchoninic acid reagent (PIERCE, and by XTT assay, using a kit from Roche.
Time course and dose dependent inhibition of cell growth. Previous studies have shown that MTX-induced cytotoxicity is detectable in vitro only if the medium is completely deprived of FA (See, e.g., Sobrero & Bertino, Int. J. Cell Cloning 4, 51 (1986)). The effect of the trifunctional dendrimers on cell growth was tested in cells incubated in a FA-deficient medium. Cells were treated with 300 nM conjugates (equivalent of 1500 nM MTX) or 1500 nM free MTX for 1-4 days, and cell proliferation was determined by estimation of cellular protein content. Cells were treated for 2 days with different concentrations of the conjugates or free MTX (the conjugate concentration is given as MTX equivalents, with 5 MTX per dendrimer molecule). KB cells which express high and low FAR were incubated with 30 nM of the dendrimers for 1 hr at 37° C., rinsed, and the fluorescence of cells was determined by flow cytometric analysis (See. e.g., FIG. 21, left panel).
KB cells were treated with 150 or 500 nM MTX in the presence or absence of equimolar concentrations of free FA for 24 h. […] The cells were rinsed to remove the drugs and incubated with fresh medium for an additional 6 d, and total cell protein was determined.

[2] = tested on: KB cells; test: Inhibition of cell growth by XTT assay; format: cell-based, human; conditions: 1, 2 or 3 days
Method: Cell culture and treatment.
Evaluation of dendrimer cytotoxicity.
Because the binding of the conjugate to KB cells reaches maximal uptake within 1 h (Quintana et al, 2002. Pharmaceutical Research 19: 1310-1316.), the effect of the G5-FI-FA-MTX on cell growth was initially tested by pre-incubation of cells with the conjugate for 1 h, followed by incubation in a drug-free medium for 5 d. […] When the cells were pre-incubated with dendrimers for 4 h, there was a modest decrease of about 10% in cell growth as determined by XTT assay. The cytotoxicity measurements were therefore done by incubation with the dendrimer for a minimum of 24 h, a pre-incubation time period shown to induce significant cytotoxicity.
The inhibition of cell growth induced by the conjugates was also tested by XTT assay which is based on the conversion of XTT to formazan by the active mitochondria of live cells (See, e.g., Roehm et al, J Immunol Methods 142, 257 (1991)).
As free FA blocks the uptake of the dendrimers as well as rescues cells from MTX-induced cytotoxicity, the effect of pre-incubation of cells with excess FA on the anti-proliferative effect of G5-FITC-FA-MTX was tested. KB cells were exposed to different concentrations of the conjugate or free MTX for 24 h in the absence or presence of 50 μM FA. The incubation medium was removed, the cells were rinsed and incubated with fresh medium for 5 additional days in the absence of the drugs, and the XTT assay was performed (See, e.g., FIG. 24, □, ▪, represents cells treated with MTX; Δ, ▴, represents cells treated with G5-FITC-FA-MTX).
The anti-proliferative effect of the MTX-conjugates was compared to conjugates that lacked either the FA or the FITC molecule. KB cells were incubated with 30 nM of the conjugates (=150 nM effective MTX concentration) for 24 h and the incubation medium was removed. The cells were rinsed and incubated for an additional 5 d in fresh medium in the absence of the drugs, and the XTT assay was performed.

[3] = Toxicity of dendrimer conjugates and free methotrexate in mice (body weight, histopathology); format: in vivo
Method: (§1) Delivery of targeted nanoparticle therapeutic. Twice weekly, SCID mice with s.c. KB xenografts, starting on day 4 after tumor implantation, received via the tail vein an injection of either targeted or nontargeted conjugate containing methotrexate, a conjugate without methotrexate, free methotrexate, or saline as a control. The compounds were delivered in a 0.2 mL volume of saline per 20 g of mouse. The single dose of methotrexate delivered each time equaled 0.33 mg/kg. The higher doses of 1.67 and 3.33 mg/kg free methotrexate were also tested. The conjugates were delivered at equimolar concentration of methotrexate calculated based on the number of methotrexate molecules present in a nanoparticle. The conjugate without methotrexate was delivered at equimolar concentration of dendrimer. In the initial trial, six groups of mice with five mice in each group received up to 15 injections. In the follow-up trial, mice received up to 28 injections dependent on their survival. The body weights of the mice were monitored throughout the experiment as an indication of adverse effects of the drug. Histopathology of multiple organs was done at the termination of each trial and each time mouse had to be euthanized due to toxic effects or tumor burden. Tissues from lung, heart, liver, pancreas, spleen, kidney, and tumor were analyzed. Additionally, cells were isolated from tumors, stained with targeted fluorescein-labeled conjugate, and tested for the presence of folic acid receptors using flow cytometer.
Toxicity of dendrimer conjugates. […] No gross toxicity, either acutely or chronically up to 99 days, was observed regardless of whether the dendrimer conjugate contained methotrexate. The weight was monitored throughout the experiment and no loss of weight was observed; in fact, the animals gained weight. At each time point, a gross examination and histopathology of the liver, spleen, kidney, lung, and heart were done. No morphologic abnormalities were observed on the histopathology examination.
The remaining experimental groups had very uniform body weight fluctuations nonindicative of toxicity when compared with control groups with saline or conjugate without methotrexate.

[4] = tested on: s.c. human KB xenografts; test: Targeted drug delivery, tumor growth and survival in SCID mice with KB xenografts; format: in vivo, SCID CB-17 mice; conditions: for effect on tumor growth: first trial
Method: Recipient animal and tumor model.
as §1
Targeted drug delivery to tumor cells through the folate receptor. The efficacy of different doses of conjugates was tested on SCID CB-17 mice bearing s.c. human KB xenografts and was compared with equivalent and higher doses of free methotrexate. Mice were maintained on the folic acid-deficient diet for 3 weeks before injection of the KB tumor cells to achieve circulating levels of folic acid that approach those in human serum and to prevent down-regulation of folate receptors on tumor xenografts (See, Mathias et al., J Nucl Med 29, 1579 (1998)). Six groups of SCID mice with five mice in each group were injected s.c. on one flank with 5×10^6 KB cells in 0.2 mL PBS suspension. The highest total dose of G5-FI-FA-MTX therapeutic used equals 55.0 mg/kg and is equivalent to a 5.0 mg/kg total cumulative dose of free methotrexate (FIG. 29). The therapeutic dose of the conjugate was compared with three cumulative doses of free methotrexate equivalent to 33.3, 21.7, and 5.0 mg/kg accumulated in 10 to 15 injections based on mouse survival. Saline and the conjugate without methotrexate (G5-FI-FA) were used as controls.

[5] = tested on: KB tumor; test: Biodistribution of fluorescent dendrimer conjugates in tumor (confocal microscopy, flow cytometry); format: in vivo, mice; conditions: single-cell suspension from tumors, versus nontargeted
Method: Biodistribution of fluorescent dendrimer conjugates. […] Flow cytometry analysis was done with single-cell suspension isolated from tumor. Tumor was crushed, cell suspension filtered through 70 μm nylon mesh (Becton Dickinson, Franklin Lakes, N.J.), and washed with in PBS. Samples were analyzed using an EPICS XL flow cytometer (Coulter, Miami, Fla.). As determined by prior propidium iodine staining, only live cells were gated for analysis. Data were reported as the mean channel fluorescence of the cell population.
For confocal microscope imaging, tissue was dissected, embedded in OCT, and frozen in 2-methyl-butane in a dry ice bath. Sections (15 μm) were cut on a cryostat, thaw mounted onto slides, and stored at −80° C. until stained. After staining, the slides were fixed in 4% paraformaldehyde, rinsed in phosphate buffer (0.1 mol/L; pH 7.2), and mounted in Prolong. The images were acquired using a Zeiss 510 metalaser scanning confocal microscope equipped with a ×40 Plan-Apo 1.2 numerical aperture (water immersion) objective with a correction collar. The confocal image was recorded as 512×512×48 pixels with a scale of 0.45×0.45×0.37 μm per pixel. Each image cube was optically cut into 48 sections, and the sections that cut through the nucleus and cytoplasm were presented.
Targeting and internalization of fluorescent dendrimer conjugate. […]

Row | Molecule | inhibition of cell growth (FIGS. 21 and 22) ([1]; FA-deficient medium, 1-4 days, different concentrations) | growth inhibition, free MTX versus equimolar MTX in G5-FITC-FA-MTX ([1]; below 1 μM) | inhibition of cell growth, XTT [2] | time at which doses became lethal ([3]; cumulative doses 33.3 and 21.7 mg/kg) | histopathology of the liver ([3]; mouse, in vivo) | toxicity ([3]; total accumulated dose equivalent to 5.0 mg/kg free methotrexate) | effect on tumor growth ([4]; up to 15 injections, cumulative 5.0 mg/kg methotrexate equivalents or equimolar dendrimer) | effect on tumor growth ([4]; cumulative 33.3 and 21.7 mg/kg) | day by which all mice died ([4]; second 99-day trial) | survivors at the termination of the trial ([4]; second 99-day trial) | mean channel fluorescence of tumor cells, flow cytometry [5]
1 | CN(Cc1cnc2nc(N)nc(N)c2n1)c1ccc(C(=O)N[C@@H](CCC(=O)O)C(=O)O)cc1 [MTX, Methotrexate, reference compound] | inhibited cell growth in a time- and dose-dependent fashion | higher | time-dependent cytotoxicity | 32 to 36 days | advanced liver lesions, collections of inflammatory cells, and periportal inflammation | nor free methotrexate at the same dose were toxic | no effect on tumor growth | affecting tumor growth | ≤ 66 days | no mice surviving | –
2 | G5-(Ac)82-(6-TAMRA)3-(FA)4 [G5-6T-FA] | – | – | – | – | – | – | – | – | – | – | higher
